Series [1] is described as follows: DRUGMATRIX: GABAA, Chloride Channel, TBOB radioligand binding (ligand: [3H] TBOB). The class given is cell membranes, Rattus norvegicus, Wistar, Cerebral cortex, Membrane. To be noted: Not Active = under 50% inhibition at 10 µM.
Series [2] concerns the target T1, Neuropeptide Y receptor type 1 (Homo sapiens, UniProt P25929). Also: in other assays of this panel Not Active means under 50% inhibition at 10 µM.
T1 sequence (P25929 whole entry): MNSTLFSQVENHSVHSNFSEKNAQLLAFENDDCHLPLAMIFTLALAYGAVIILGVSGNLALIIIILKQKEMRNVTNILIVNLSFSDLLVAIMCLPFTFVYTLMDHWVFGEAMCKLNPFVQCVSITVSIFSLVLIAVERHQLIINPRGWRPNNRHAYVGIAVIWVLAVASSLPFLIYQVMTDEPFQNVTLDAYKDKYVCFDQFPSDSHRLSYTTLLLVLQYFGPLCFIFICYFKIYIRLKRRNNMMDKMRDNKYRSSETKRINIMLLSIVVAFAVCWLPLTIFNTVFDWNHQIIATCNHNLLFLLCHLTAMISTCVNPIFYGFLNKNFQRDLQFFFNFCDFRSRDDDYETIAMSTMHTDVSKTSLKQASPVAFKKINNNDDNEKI
The class given is cell membranes, Membrane. As to conditions: sk-n-mc.

A further series addresses T2, D(4) dopamine receptor (Homo sapiens, UniProt P21917).
T2 sequence (P21917 whole entry): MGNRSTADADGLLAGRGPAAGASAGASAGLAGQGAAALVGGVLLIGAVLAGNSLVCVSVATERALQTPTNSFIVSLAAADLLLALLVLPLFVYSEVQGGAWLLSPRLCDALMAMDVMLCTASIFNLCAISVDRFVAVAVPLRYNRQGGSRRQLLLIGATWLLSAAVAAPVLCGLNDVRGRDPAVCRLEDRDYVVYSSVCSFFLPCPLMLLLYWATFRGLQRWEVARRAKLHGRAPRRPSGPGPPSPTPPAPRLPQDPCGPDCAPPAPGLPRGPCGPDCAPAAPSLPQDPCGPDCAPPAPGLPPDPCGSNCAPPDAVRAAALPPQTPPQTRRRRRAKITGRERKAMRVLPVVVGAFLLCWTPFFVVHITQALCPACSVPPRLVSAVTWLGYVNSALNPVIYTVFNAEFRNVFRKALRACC
The series is described as follows: DRUGMATRIX: Dopamine D4.2 radioligand binding (ligand: [3H] Spiperone). The class given is cell membranes, CHO-K1, Membrane. As to conditions: Not Active = under 50% inhibition at 10 µM; for IC50: cho-k1.

The next series concerns the target Estrogen receptor beta (Homo sapiens, UniProt Q92731). As to conditions: sf9. Also: in other assays of this panel Not Active means under 50% inhibition at 10 µM.
The target of a further series is T3, Thromboxane-A synthase (Homo sapiens, UniProt P24557).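 Also: enzyme inhibition assay with PGH2 supplied as substrate; in other assays of this panel Not Active means under 50% inhibition at 10 µM.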
T3 sequence (P24557 whole entry): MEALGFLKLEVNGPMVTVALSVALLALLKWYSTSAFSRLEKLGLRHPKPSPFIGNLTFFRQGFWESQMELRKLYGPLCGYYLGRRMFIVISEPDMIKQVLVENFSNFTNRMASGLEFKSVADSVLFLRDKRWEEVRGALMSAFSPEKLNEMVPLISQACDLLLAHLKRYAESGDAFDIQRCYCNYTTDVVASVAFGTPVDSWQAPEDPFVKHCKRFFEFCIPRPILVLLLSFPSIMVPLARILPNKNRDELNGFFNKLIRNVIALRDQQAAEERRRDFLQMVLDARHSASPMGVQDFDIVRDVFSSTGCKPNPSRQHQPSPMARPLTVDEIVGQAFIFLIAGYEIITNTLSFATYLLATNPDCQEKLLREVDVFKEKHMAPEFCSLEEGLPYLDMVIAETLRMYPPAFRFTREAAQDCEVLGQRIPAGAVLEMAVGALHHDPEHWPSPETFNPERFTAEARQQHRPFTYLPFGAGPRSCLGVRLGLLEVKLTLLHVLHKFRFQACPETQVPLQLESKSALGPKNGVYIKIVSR
The series is described as follows: biochemical. It counts as tissue-based, Platelet. As to conditions: for IC50: platelet.

Series [3] addresses 5-hydroxytryptamine receptor 4 (Cavia porcellus, UniProt O70528). The class given is cell membranes, Dunkin-Hartley, Striatum, Membrane.
The target in another series is Vasopressin V1a receptor (Homo sapiens, UniProt P37288). It counts as cell membranes, Membrane. To be noted: hek293. Also: in other assays of this panel Not Active means under 50% inhibition at 10 µM.
For the next series, the target named is T4, Cytochrome P450 2A6 (Homo sapiens, UniProt P11509). Also: in other assays of this panel Not Active means under 50% inhibition at 10 µM.
T4 sequence (P11509 whole entry): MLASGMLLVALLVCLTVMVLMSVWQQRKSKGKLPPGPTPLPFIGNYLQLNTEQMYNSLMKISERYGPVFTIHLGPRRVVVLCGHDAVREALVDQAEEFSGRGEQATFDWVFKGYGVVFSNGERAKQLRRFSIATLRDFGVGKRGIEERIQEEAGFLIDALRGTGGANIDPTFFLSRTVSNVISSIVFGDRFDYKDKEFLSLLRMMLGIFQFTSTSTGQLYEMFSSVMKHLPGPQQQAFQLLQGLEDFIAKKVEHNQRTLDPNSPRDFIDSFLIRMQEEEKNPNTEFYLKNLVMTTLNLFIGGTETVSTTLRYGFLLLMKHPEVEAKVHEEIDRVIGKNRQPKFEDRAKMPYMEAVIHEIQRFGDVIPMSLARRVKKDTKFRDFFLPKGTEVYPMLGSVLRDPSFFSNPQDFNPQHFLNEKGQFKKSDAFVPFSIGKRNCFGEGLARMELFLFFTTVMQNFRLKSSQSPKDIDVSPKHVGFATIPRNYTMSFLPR
As to conditions: bti-tn-5b1-4.

Consider 15 compounds from ChEMBL document CHEMBL1909046, “DrugMatrix in vitro pharmacology data”.

SMILES strings stand for the structures. pIC50, pKi: −log10 of the molar value.

Vasopressin V1a receptor, sequence (P37288 whole entry): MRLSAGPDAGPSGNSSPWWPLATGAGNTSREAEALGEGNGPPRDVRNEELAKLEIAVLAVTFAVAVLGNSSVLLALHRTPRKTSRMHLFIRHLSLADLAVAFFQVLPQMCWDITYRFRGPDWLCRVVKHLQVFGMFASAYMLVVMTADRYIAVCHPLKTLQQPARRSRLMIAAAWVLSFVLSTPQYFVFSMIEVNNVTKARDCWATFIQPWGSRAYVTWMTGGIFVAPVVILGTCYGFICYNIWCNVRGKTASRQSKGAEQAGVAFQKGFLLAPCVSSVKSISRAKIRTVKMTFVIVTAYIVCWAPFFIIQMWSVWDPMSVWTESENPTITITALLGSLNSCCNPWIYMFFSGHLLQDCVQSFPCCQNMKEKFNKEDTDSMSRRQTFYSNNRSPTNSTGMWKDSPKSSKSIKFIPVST
5-hydroxytryptamine receptor 4, sequence (O70528 whole entry): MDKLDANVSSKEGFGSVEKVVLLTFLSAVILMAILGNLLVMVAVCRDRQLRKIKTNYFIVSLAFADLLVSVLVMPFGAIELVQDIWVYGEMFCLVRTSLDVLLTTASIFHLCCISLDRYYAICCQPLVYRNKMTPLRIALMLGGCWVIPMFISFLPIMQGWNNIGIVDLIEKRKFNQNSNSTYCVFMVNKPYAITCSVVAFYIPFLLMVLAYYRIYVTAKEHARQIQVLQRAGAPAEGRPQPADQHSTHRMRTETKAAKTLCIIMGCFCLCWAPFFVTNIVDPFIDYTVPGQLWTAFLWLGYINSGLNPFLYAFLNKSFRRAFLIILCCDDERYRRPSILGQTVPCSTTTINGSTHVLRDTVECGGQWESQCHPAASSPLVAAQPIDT
Estrogen receptor beta, sequence (Q92731 whole entry): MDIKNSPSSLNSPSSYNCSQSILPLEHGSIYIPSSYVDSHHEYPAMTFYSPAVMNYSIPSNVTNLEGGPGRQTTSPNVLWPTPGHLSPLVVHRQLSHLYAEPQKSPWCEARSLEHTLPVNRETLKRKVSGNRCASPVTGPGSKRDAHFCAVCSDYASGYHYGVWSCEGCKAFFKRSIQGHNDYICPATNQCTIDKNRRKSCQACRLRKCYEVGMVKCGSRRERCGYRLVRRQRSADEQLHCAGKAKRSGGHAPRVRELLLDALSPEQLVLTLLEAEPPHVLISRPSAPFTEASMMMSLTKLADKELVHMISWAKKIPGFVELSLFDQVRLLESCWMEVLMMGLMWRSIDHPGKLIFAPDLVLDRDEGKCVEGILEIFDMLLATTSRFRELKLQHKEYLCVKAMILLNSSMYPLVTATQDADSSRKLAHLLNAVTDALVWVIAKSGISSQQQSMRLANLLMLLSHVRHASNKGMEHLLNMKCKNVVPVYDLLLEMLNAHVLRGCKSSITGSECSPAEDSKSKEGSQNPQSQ

`Cc1c(C)c2c(c(C)c1O)CCC(C)(CN1CCN(c3cc(N4CCCC4)nc(N4CCCC4)n3)CC1)O2` (stereo not given): the IC50 entry (in series [1]; in series [2]; on D(4) dopamine receptor; against Estrogen receptor beta; against Thromboxane-A synthase; in series [3]) was “Not Active” throughout. Besides, the IC50 entry on Vasopressin V1a receptor is listed as “Not Active”. The Ki result in series [1] is on record as “Not Active”.
In the case of `CN(C)CCOC(c1ccccc1)c1ccccc1` [DIPHENHYDRAMINE], the IC50 entry (in series [2]; at D(4) dopamine receptor; against Estrogen receptor beta; against Thromboxane-A synthase; in series [3]; against Vasopressin V1a receptor) was “Not Active” throughout.
In the case of `Clc1ccc(COC(Cn2ccnc2)c2ccc(Cl)cc2Cl)cc1` (stereo not given) [ECONAZOLE], the IC50 entry (in series [2]; against Estrogen receptor beta; in series [3]; against Cytochrome P450 2A6; on Vasopressin V1a receptor) was “Not Active” each time. For the same compound, the pIC50 (as a rule, the IC50 on a negative log10 scale, so that one unit is a factor of ten) is 5.03 at D(4) dopamine receptor (read-out: IC50) and 7.54 on Thromboxane-A synthase (read-out: IC50). The pKi – broadly, the negative decadic logarithm of the Ki, by convention in mol/L – on D(4) dopamine receptor (read-out: Ki) is 5.49. The Ki entry at Cytochrome P450 2A6 is “Not Active”.
As for `CCN(CC)CCOc1ccc(/C(=C(/Cl)c2ccccc2)c2ccccc2)cc1` [ENCLOMIPHENE], the IC50 entry (in series [2]; at D(4) dopamine receptor; at Estrogen receptor beta; against Thromboxane-A synthase; in series [3]; against Cytochrome P450 2A6) was “Not Active” in each case. Also, the IC50 result at Vasopressin V1a receptor is given as “Not Active”. Besides, the Ki entry at Cytochrome P450 2A6 is “Not Active”.
For `CC(C)Oc1ccc2c(=O)c(-c3ccccc3)coc2c1` [IPRIFLAVONE], the IC50 result (in series [1]; in series [2]; on D(4) dopamine receptor; against Thromboxane-A synthase; in series [3]; on Cytochrome P450 2A6) was “Not Active” throughout. The IC50 result at Vasopressin V1a receptor is “Not Active”. Also, the Ki entry (in series [1]; at Cytochrome P450 2A6) was “Not Active” throughout.
With `CO[C@@H]1[C@@H](OC)[C@H](C)[C@@](O)(CC(=O)O)O[C@H]1[C@H](C)[C@H]1O[C@@]2(CC[C@@](C)([C@H]3CC[C@@](C)([C@@H]4O[C@@H]([C@H]5O[C@](C)(O)[C@H](C)C[C@@H]5C)C[C@@H]4O[C@@H]4C[C@H](OC)[C@@H](OC)[C@H](C)O4)O3)O2)C[C@H](O)[C@H]1C` [MADURAMICIN ACID], the IC50 entry (in series [1]; in series [2]; at D(4) dopamine receptor; against Thromboxane-A synthase; in series [3]; on Cytochrome P450 2A6) was “Not Active” in each case. The IC50 entry on Vasopressin V1a receptor is listed as “Not Active”. The Ki entry (in series [1]; at Cytochrome P450 2A6) was “Not Active” in each case.
On to `C[C@H]1C[C@@H]2[C@H]([C@@H](O)C[C@@]3(C)[C@H]2CC[C@]3(O)C(=O)CO)[C@@]2(C)C=CC(=O)C=C12` [METHYLPREDNISOLONE], for which the IC50 entry (in series [1]; in series [2]; at D(4) dopamine receptor; on Thromboxane-A synthase; in series [3]; against Cytochrome P450 2A6) was “Not Active” in each case. The IC50 entry at Vasopressin V1a receptor was “Not Active”. Besides, the Ki entry (in series [1]; on Cytochrome P450 2A6) was “Not Active” each time.
As for `Cc1cccc(C)c1OCC(C)N` (stereo not given) [MEXILETINE], the IC50 entry (in series [1]; in series [2]; on D(4) dopamine receptor; on Thromboxane-A synthase; in series [3]; on Cytochrome P450 2A6) was “Not Active” in each case. Moreover, the IC50 result on Vasopressin V1a receptor is given as “Not Active”. Moreover, the Ki result (in series [1]; on Cytochrome P450 2A6) was “Not Active” throughout.
As to `O=C(Oc1ccccc1C(=O)O)c1ccccc1O` [SALSALATE], the IC50 entry (in series [1]; in series [2]; on D(4) dopamine receptor; against Thromboxane-A synthase; in series [3]; on Cytochrome P450 2A6) was “Not Active” in each case. In addition, on Vasopressin V1a receptor, the IC50 result was “Not Active”. For the same compound, the Ki entry (in series [1]; on Cytochrome P450 2A6) was “Not Active” each time.
Consider `O=C(O)c1cn(-c2ccc(F)cc2)c2cc(N3CCNCC3)c(F)cc2c1=O` [SARAFLOXACIN], for which the IC50 entry (in series [1]; in series [2]; on D(4) dopamine receptor; at Thromboxane-A synthase; in series [3]; against Cytochrome P450 2A6) was “Not Active” throughout. For the same compound, the IC50 result against Vasopressin V1a receptor is on record as “Not Active”. Moreover, the Ki entry (in series [1]; on Cytochrome P450 2A6) was “Not Active” in each case.
For the compound `O.O.O.O.O.O.[Cl-].[Cl-].[Sr+2]` [STRONTIUM CHLORIDE HEXAHYDRATE], the IC50 entry (in series [1]; in series [2]; at D(4) dopamine receptor; against Thromboxane-A synthase; in series [3]; on Cytochrome P450 2A6) was “Not Active” each time. Also, on Vasopressin V1a receptor, the IC50 result was “Not Active”. In addition, the Ki entry (in series [1]; at Cytochrome P450 2A6) was “Not Active” throughout.
Turning to `O=C1C(CC[S+]([O-])c2ccccc2)C(=O)N(c2ccccc2)N1c1ccccc1` (stereo not given) [SULFINPYRAZONE], the IC50 entry (in series [1]; in series [2]; at D(4) dopamine receptor; against Thromboxane-A synthase; in series [3]; against Cytochrome P450 2A6) was “Not Active” in each case. The IC50 result on Vasopressin V1a receptor is recorded as “Not Active”. The Ki result (in series [1]; on Cytochrome P450 2A6) was “Not Active” in each case.
For the compound `CCCCNc1ccc(C(=O)OCCN(C)C)cc1` [TETRACAINE], the IC50 entry (in series [1]; in series [2]; at D(4) dopamine receptor; at Thromboxane-A synthase; in series [3]; at Cytochrome P450 2A6) was “Not Active” in each case. The IC50 result at Vasopressin V1a receptor is on record as “Not Active”. The Ki entry (in series [1]; on Cytochrome P450 2A6) was “Not Active” throughout.
As to `Cn1c(=O)c2nc[nH]c2n(C)c1=O.O` [THEOPHYLLINE], the IC50 result (in series [1]; in series [2]; at D(4) dopamine receptor; at Thromboxane-A synthase; in series [3]; against Cytochrome P450 2A6) was “Not Active” each time. Also, at Vasopressin V1a receptor, the IC50 entry is recorded as “Not Active”. Also, the Ki result (in series [1]; at Cytochrome P450 2A6) was “Not Active” each time.
As to `CS(=O)(=O)c1ccc([C@@H](O)[C@@H](CO)NC(=O)C(Cl)Cl)cc1` [THIAMPHENICOL], the IC50 entry (in series [1]; in series [2]; on D(4) dopamine receptor; against Thromboxane-A synthase; in series [3]; against Cytochrome P450 2A6) was “Not Active” in each case. Moreover, the IC50 entry on Vasopressin V1a receptor is “Not Active”. In addition, the Ki entry (in series [1]; at Cytochrome P450 2A6) was “Not Active” throughout.
